Results: patent US20160025704A1, “METHODS FOR IDENTIFYING NEUROPROTECTIVE PKC ACTIVATORS” (priority 2013, published 2016)

Legend:
[1] = Internal toxicity study: Clinical Chemistry Panel & Hematology Panel; type: in vivo
Procedure: Internal tests measuring various biological markers were performed 24 hours after administering a PKC activator (bryostatin, cyclopropanated arachidonic acid, DCPLA, and DHACP6) at 10× the therapeutic dose. The results are shown below in Tables 5-7.

[2] = Bryostatin levels in plasma and brain after intravenous injection; type: in vivo, mice
Procedure: Measurements of bryostatin were analyzed at different time points subsequent to administration of a high dose of bryostatin (114 μg/m2). […] The plasma/brain ratio can be greater than 30.
Protocol: Male C57BL/6M mice (15-20 g, Charles River) were acclimatized for 7-8 days in a non-enriched environment, three mice per cage. Bryostatin (Tocris) was dissolved in DMSO, diluted into 0.9% saline, and injected into the tail vein at doses of 10 and 15 μg/m2. After a fixed period, the mice were anesthetized with CO2 and the brain was frozen on dry ice. Blood was mixed with 0.2 ml 1 mM EDTA in PBS, centrifuged at 100 g for 30 min, and plasma was frozen on dry ice. In some experiments, blood lymphocyte fractions were collected using Ficoll-Paque Plus reagent using the procedure recommended by the manufacturer. All animal procedures were approved by the institutional IACUC.
Bryostatin was injected into the tail vein of C57BL/6N mice at 10 and 15 μg/m2 (equivalent to 3.50 and 5.25 μg/kg), and brain PKC-ε concentration was measured using Western blots. Brain PKC-ε activation was biphasic, peaking at 0.5 h and slowly declined toward resting levels, even though bryostatin levels continued to increase. This is consistent with the short-lived activation of PKC established previously. […] The bryostatin concentration at 0.5 h was 0.029 nM.

Primary human neurons = test: Synaptogenicity in primary human neurons; type: cell-based; settings: 0.27 nM
Procedure: Protocol: Primary human neurons were treated with either DCPLA-methyl ester (100 nM) or bryostatin-1 (0.27 nM).

[3] = test system: neurons in the CA1 hippocampal area; test: Apoptotic cell death (TUNEL) in hippocampal CA1 area after ischemic (2-VO)/hypoxic event; type: in vivo; settings: 15 μg/m^2 tail vein, 2 doses/week for 10 doses, starting 24 hours after ischemic/hypoxic event; staining 9 day after last dose
Procedure: Protocol: Bryostatin-1 (15 μg/m^2) was administered through a tail vein (2 doses/week, for 10 doses), starting 24 hours after the end of the ischemic (2-VO)/hypoxic event. Staining for apoptotic cell death in the hippocampal CA1 area was performed 9 day after the last bryostatin-1 dose. […] (C) Quantification of TUNEL staining in stratum radiatum (n=3 animals; n=30 confocal images). Con=control; Bry=bryostatin-1; Isch=cerebral ischemia; ***, P<0.001.

Tg2576 mice = test: Dendritic spines and synapses in hippocampal CA1 area of Tg2576 mice; type: in vivo
cerebral ischemia rats = test: Retention of spatial learning and memory after cerebral ischemia (training before ischemia); type: in vivo; settings: 15 μg/m^2 tail vein, 2 doses/week for 10 doses; second probe test 2 weeks after last dose (FIG. 22)
Procedure: Protocol: An initial evaluation of the test rats was undertaken to observe their spatial learning (2 trials/day for 6 days) and memory (a probe test of 1 min, 24 hours after the last trial). Cerebral ischemia was induced 1 day after the probe test, followed by bryostatin-1 (15 μg/m^2) administration through a tail vein (2 doses/week, for 10 doses), starting 24 hours after the end of the ischemic (2-VO)/hypoxic event. A second probe test was performed 2 weeks after the last bryostatin-1 dose. Results are shown in A for the spatial water maze performance of the rats over training trials (2 trials/day for 6 days) before the ischemia/treatment (means±SEM.; trials: F11,383=40.483, P<0.001; groups: F3,383=0.315, P>0.05). Results of the probe test after the training trials before the ischemia and/or treatment are shown in B-E (Quadrant 4 was the target quadrant). Results are shown for the target quadrant ratios before (pre-Isch) and after (post-Isch) the ischemia and/or treatment in F. Results are shown in G for the latency of the first crossing the target location before (pre-Isch) and after (post-Isch) the ischemia and/or treatment. There were eight rats/group (Bry—bryostatin-1; Isch.—cerebral ischemia) (*, P<0.05. NS: P>0.05).

[4] = test system: fragile X transgenic mice; test: Synapses in fragile X transgenic mice; type: in vivo; settings: 25 μg/kg body weight intraperitoneal twice a week for 3 months
Procedure: Protocol: Bryostatin (25 μg/kg body weight, intraperitoneal injection) was administered to 2 month old fragile X transgenic mice twice a week for 3 months. […] Non-treated groups (WC and TC) received the same vehicle volumes, mechanism of delivery, and frequency of administration as the treated groups.

[5] = test system: healthy brown Norway rats; test: Mushroom spine formation in healthy rats after water maze training; type: in vivo; settings: given during water maze training
Excerpt: Protocol: Non-diseased, healthy brown Norway rats (at 4-5 months old) were used in this study. Bryostatin enhanced the formation of mushroom spines in healthy rats after water maze training as shown in a-e. Memory retention after water maze training (4 swims per days for 5 days) increased the number of mushroom dendritic spine and synapses with (e) perforated postsynaptic densities (PSDs), but not with macular PSDs (d). […] Nv=naîve controls; Sw=swim controls; Mz=water maze treatment; and Mz/Br=water maze treatment plus bryostatin treatment.

[6] = postischemic/hypoxic treatment; Sun and Alkon 2008; cited from earlier work
[7] = i.v. 150 μg/m^2 = 10 × Therapeutic Dose, 24 hours, normalized to Control
[8] = i.v. 150 μg/m^2 = 10 × Therapeutic Dose, 24 hours, normalized to Normal
[9] = 30 μg/kg intraperitoneal twice a week from 2 months old, analysis at five months

## CCC/C=C/C=C/C(=O)O[C@H]1/C(=C/C(=O)OC)C[C@H]2C[C@H]([C@@H](C)O)OC(=O)C[C@H](O)C[C@@H]3C[C@H](OC(C)=O)C(C)(C)[C@](O)(C[C@@H]4C/C(=C/C(=O)OC)C[C@H](/C=C/C(C)(C)[C@]1(O)O2)O4)O3 [Bryostatin, bryostatin-1]
[1]; 24 hours after administering 10× the therapeutic dose, summary of Tables 5-7
  levels of biological markers as compared to normal levels (toxicity): did not demonstrate statistically significant differences in levels of biological markers as compared to normal levels
[1]; [7]
  ALB (Albumin): 91.1 ± 0.8
  ALP (Alkaline phosphatase): 62.8 ± 10.0
  ALT (Alanine aminotransferase): 63.6 ± 3.6
  AST (Aspartate aminotransferase): 75.2 ± 11.3
  BUN (Blood urea nitrogen): 117.0 ± 4.5
  CA (Calcium): 89.2 ± 6.1
  CO2-LC (Bicarbonate): 91.1 ± 4.2
  CREAT (Creatinine): 80.7 ± 3.5
  GLU (Glucose): 77.6 ± 8.4
  K (Potassium): 101.0 ± 3.6
  NA (Sodium): 94.1 ± 1.9
  TBILI (Total bilirubin): 78.2 ± 13.0
  TPROT (Total protein): 91.3 ± 2.8
[1]; [8]
  BA (Basophils): 300.0 ± 200.0
  EO (Eosinophils): 375.0 ± 250.0
  HCT (Hematocrit): 97.3 ± 21.9
  Hb (Hemoglobin): 83.4 ± 19.5
  LY (Lymphocytes): 134.4 ± 55.1
  MCH (Mean corpuscular hemoglobin): 86.7 ± 4.9
  MCHC (Mean corpuscular hemoglobin concentration): 85.1 ± 2.8
  MCV (Mean corpuscular volume): 101.8 ± 2.8
  MO (Monocytes): 133.3 ± 50.0
  MPV (Mean platelet volume): 96.2 ± 2.4
  NE (Neutrophils): 144.8 ± 55.1
  PLT (Platelet count): 109.4 ± 43.9
  RBC (Red Blood Cells): 95.3 ± 20.0
  RDW (Red cell distribution width): 106.8 ± 6.2
  WBC (White blood cells): 142.3 ± 57.3
[2]; FIG. 2, brain versus plasma
  brain bryostatin relative to PKC downregulation: below PKC downregulation
[2]; single intravenous injection, 114 μg/m2, mice
  plasma/brain ratio: greater than 30
[2]; single intravenous injection, high dose 114 μg/m2, mice
  half-life in the brain as compared to plasma: extremely long half-life in the brain as compared to in plasma
[2]; tail vein 10 and 15 μg/m2, C57BL/6N mice, 0.5 h
  bryostatin concentration at 0.5 h: 0.029 nM
Primary human neurons; 30 days
  co-localized staining of PSD-95 and synaptophysin in puncta (number of synapses): an increase in co-localized staining of PSD-95 and synaptophysin in puncta
Primary human neurons; 40 days
  survival, neuritic branching and connections: improved survival with increased neuritic branching and connections
[3]
  apoptotic cell death in neurons in the CA1 hippocampal area: prevents apoptotic cell death
Tg2576 mice; [9]
  mushroom spine-shape dendritic spines: prevented decreases in mushroom spine-shape dendritic spines
  synapses (electron microscopy): prevented decreases
Tg2576 mice; Tg2576 mice at 5 months old (FIG. 19)
  loss of postsynaptic dendritic spines and synapses in the hippocampal CA1 area: protects against the loss of postsynaptic dendritic spines and synapses
Cerebral ischemia rats
  learning experience and memory after cerebral ischemia: rescues learning experience and memory
[4]
  losses of postsynaptic dendritic spines: rescued the losses of
  losses of presynaptic vesicles within presynaptic axonal boutons: rescued the losses of
  losses of synapses: rescued the losses of synapses
[5]
  mushroom spines with macular PSDs: significantly increased
  mushroom spines with perforated PSDs: enhanced
[6]
  ischemia-induced deficits in synaptogenesis, neurotrophic activity, and spatial learning and memory: effectively rescued ischemia-induced deficits in synaptogenesis, neurotrophic activity, and spatial learning and memory
